# Results published in patent US12590099B2, “Inhibitors of histone deacetylase useful for the treatment or prevention of HIV infection” (Merck Sharp & Dohme LLC, priority 2018, dated 2026).
# Tests used:
# Type in all cases: biochemical
# HDAC6 = molecular target: T1, HDAC6 (Homo sapiens, UniProt Q9UBN7); assay: Human HDAC enzyme inhibitor Fluor-de-Lys assay, HDAC6
# T1 sequence (Q9UBN7 1-1215): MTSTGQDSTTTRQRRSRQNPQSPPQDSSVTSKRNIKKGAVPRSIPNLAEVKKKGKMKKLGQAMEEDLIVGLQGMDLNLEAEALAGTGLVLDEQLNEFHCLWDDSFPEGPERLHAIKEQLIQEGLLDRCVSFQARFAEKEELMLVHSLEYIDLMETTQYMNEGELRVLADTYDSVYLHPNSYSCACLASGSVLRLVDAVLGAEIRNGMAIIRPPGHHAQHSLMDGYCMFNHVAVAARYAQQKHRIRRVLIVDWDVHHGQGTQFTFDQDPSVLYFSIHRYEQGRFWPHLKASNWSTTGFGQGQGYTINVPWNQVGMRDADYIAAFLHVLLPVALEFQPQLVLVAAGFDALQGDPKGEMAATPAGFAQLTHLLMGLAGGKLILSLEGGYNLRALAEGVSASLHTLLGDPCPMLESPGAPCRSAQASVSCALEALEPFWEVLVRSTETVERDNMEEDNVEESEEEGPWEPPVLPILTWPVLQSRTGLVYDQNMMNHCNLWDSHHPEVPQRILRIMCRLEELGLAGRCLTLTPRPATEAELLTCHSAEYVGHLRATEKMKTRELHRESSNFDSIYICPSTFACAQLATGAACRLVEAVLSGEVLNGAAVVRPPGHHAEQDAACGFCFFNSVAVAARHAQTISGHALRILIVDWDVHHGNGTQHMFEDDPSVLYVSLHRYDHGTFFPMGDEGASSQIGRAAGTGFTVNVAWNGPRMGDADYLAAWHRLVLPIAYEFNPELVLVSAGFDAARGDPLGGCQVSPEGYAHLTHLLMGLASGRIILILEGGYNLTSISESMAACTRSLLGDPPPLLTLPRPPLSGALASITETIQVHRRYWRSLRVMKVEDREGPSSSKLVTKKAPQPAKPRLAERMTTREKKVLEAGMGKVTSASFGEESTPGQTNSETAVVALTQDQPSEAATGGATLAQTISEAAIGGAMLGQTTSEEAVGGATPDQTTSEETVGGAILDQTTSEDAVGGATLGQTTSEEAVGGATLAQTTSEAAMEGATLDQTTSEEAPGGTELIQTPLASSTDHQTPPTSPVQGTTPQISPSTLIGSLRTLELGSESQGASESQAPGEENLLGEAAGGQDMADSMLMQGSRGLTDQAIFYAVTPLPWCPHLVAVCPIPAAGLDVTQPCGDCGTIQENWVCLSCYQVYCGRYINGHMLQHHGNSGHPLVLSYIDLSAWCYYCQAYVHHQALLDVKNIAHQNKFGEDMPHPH
# Recombinant human HDAC1 = molecular target: T2, Recombinant human HDAC1 (Homo sapiens, UniProt Q13547); assay: Human HDAC enzyme inhibitor Fluor-de-Lys assay, HDAC1
# T2 construct: FLAG (C); made in house
# T2 sequence (Q13547 whole entry): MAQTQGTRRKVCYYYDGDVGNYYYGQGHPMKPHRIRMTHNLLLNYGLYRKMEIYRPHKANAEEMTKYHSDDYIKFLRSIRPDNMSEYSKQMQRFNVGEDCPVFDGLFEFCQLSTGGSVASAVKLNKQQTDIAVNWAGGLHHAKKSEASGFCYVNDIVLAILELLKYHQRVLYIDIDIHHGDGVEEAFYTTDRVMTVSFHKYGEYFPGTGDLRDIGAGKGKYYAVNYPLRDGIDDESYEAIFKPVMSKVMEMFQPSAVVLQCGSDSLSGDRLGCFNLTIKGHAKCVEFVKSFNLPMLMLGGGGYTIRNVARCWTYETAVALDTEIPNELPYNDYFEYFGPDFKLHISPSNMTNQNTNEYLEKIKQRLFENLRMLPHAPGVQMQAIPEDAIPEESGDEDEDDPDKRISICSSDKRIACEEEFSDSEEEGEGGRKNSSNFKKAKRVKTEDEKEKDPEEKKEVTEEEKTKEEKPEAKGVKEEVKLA
# Protocol: Human HDAC Enzyme Inhibitor Fluor-De-Lys Assay
# Recombinant human HDAC8 (BML-SE145-0100) and HDAC10 (BML-SE559-0050) enzymes, HDAC substrates BML-KI104 and BML-KI178, and HDAC developer solutions BML-KI105 and BML-KI176 were purchased from Enzo Life Sciences. […] HDAC inhibitor suberoylanilide hydroxamic acid (SAHA) was obtained from Indofine and trichostatin A (TSA) was obtained from Sigma-Aldrich.
# Recombinant human HDAC1, HDAC2, and HDAC3/SMRT heterodimer were prepared by Merck Research Laboratories. […] The eluted protein was then passed over an anti-HDAC1 immunoaffinity column to remove any complexes containing HDAC1. […]
# The histone deacetylase activities of HDAC1, HDAC2, HDAC3, HDAC6, and HDAC8 were measured in modified FLUOR DE LYS assays in 384-well format. In this assay, HDAC enzymes are initially incubated with an ε-acetyl (or -trifluoroacetyl)-L-lysine-containing substrate with a C-terminal amide having aminomethylcoumarin as the amine component. HDACs cleave the ε-acetyl group, rendering the resulting product susceptible to AMC cleavage by trypsin. The released AMC is then detected by its fluorescence.
# The HDAC3/SMRT assay employed buffer B, consisting of 20 mM HEPES, pH 8.0, 1 mM MgCl2, 50 mM NaCl, 2.7 mM KCl, 0.05% BSA, 0.005% Tween 20, and 10 μM IP4. […] The HDAC8 assay employed buffer D, consisting of 20 mM HEPES, pH 8.0, 1 mM MgCl2, 100 mM NaCl, 20 mM KCl, 0.10% n-octyl-β-D-glucoside (Anatrace) and 0.05% BSA. All steps were performed at room temperature (23° C.). The assay was performed by pre-incubating serial dilutions of test compounds with the target HDAC prior to initiation with substrate. Each compound was titrated in a 10-point dose response, using a 1:3 fold dilution scheme, with 0.15 ul of solution added by ECH0555 to the plate, followed by the addition of 20 μl of the appropriate HDAC isoform diluted in appropriate assay buffer. […] Final conditions used for each assay were: 1. HDAC 1, 0.3 nM total enzyme, 20 μM substrate BML-KI104; 2. […] HDAC 3/SMRT, 0.3 nM total enzyme, 20 μM substrate BML-KI104; 4. […] The reactions were stopped and developed by addition of 30 ul of HDAC developer solution containing a saturating level of HDAC inhibitor as follows: 1.
# [1] = molecular target: T3, Recombinant human HDAC3/SMRT heterodimer (Homo sapiens, UniProt O15379); assay: Human HDAC enzyme inhibitor Fluor-de-Lys assay, HDAC3/SMRT
# T3 construct: FLAG (C); made in house
# T3 sequence (O15379 whole entry): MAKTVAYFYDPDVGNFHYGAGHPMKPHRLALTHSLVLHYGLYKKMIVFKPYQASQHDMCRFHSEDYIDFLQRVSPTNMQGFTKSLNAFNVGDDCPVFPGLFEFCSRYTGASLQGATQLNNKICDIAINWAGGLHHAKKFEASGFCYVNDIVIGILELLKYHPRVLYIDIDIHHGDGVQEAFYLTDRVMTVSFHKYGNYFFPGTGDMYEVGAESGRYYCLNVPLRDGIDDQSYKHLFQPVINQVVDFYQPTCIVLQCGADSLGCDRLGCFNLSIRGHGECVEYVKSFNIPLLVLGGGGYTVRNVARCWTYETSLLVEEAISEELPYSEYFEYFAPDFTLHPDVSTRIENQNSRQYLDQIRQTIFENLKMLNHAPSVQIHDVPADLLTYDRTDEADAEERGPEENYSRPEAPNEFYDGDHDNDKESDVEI
# T3 sequence (Q9Y618 1-899 partner limits assumed): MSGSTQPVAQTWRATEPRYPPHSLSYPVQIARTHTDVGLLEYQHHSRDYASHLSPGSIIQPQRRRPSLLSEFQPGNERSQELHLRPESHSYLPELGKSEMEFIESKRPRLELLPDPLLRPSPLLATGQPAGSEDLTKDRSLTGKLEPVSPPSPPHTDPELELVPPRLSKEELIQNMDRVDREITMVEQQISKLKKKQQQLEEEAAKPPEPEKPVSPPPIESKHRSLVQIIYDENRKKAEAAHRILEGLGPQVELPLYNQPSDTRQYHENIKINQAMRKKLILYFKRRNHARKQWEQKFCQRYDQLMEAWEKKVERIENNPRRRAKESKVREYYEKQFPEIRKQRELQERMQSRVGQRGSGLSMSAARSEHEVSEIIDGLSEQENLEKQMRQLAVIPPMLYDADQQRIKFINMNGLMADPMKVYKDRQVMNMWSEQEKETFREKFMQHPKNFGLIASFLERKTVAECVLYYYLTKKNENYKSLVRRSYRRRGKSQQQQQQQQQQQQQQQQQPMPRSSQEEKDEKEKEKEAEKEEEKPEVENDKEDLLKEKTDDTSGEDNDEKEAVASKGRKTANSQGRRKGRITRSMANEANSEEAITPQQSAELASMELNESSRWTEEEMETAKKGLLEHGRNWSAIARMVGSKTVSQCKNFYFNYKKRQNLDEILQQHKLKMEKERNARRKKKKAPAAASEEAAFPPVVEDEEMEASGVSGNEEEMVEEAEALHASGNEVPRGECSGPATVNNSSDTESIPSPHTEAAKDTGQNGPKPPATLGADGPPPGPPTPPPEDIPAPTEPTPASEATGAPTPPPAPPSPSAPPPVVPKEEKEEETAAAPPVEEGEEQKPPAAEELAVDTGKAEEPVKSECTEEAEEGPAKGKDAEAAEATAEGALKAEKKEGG
Structure (SMILES),IC50 (HDAC6) [nM],IC50 (Recombinant human HDAC1) [nM],IC50 [1] [nM]
"CCC(=O)CCCCC[C@H](NCCN(C)C)c1ncc(-c2cc3ccc(C)nc3cc2OC)[nH]1 [Compound 217, (9S)-9-{[2-(dimethylamino)ethyl]amino}-9-[5-(7-methoxy-2-methylquinolin-6-yl)-1H-imidazol-2-yl]nonan-3-one]",> 900,4.56,10.9
CCC(=O)CCCCC[C@H](NC(=O)[C@H]1CC12CCN(CC)CC2)c1ncc(-c2ccc3c(=O)n(C(C)C)ccc3c2)[nH]1 [Compound 126],18100,0.19,0.19
CCC(=O)CCCCC[C@H](NC(=O)[C@H]1CC12CCN(C)CC2)c1ncc(-c2ccc3oc(=O)ccc3c2)[nH]1 [Compound 138],1470,1.32,1.62
CCC(=O)CCCCC[C@H](NC(=O)C1CC2(CCN(C)CC2)C1)c1ncc(-c2ccc3nn(C)cc3c2)[nH]1 [Compound 145],5760,5.85,2.61
CCC(=O)CCCCC[C@H](NC(=O)[C@H]1CC[C@]2(CC1)OC(=O)c1ncccc12)c1ncc(-c2cc3ccccc3nc2OC)[nH]1 [Compound 141],1490,12.2,1.98
CCC(=O)CCCCC[C@H](NC(=O)[C@H]1CC12CCN(C)CC2)c1nnc(-c2cc3ccc(C)nc3cc2OC)o1 [Compound 191],2050,2.16,1.68
"CCC(=O)CCCCC[C@H](NC(=O)C1CC12CCN(C)C(C)(C)C2)c1ncc(-c2ccc3nc(C)ccc3c2)[nH]1 (single isomer, unassigned) [Compound 132]",3680,2.33,< 1.5
CCC(=O)CCCCC[C@H](NC(=O)[C@H]1CC12CCN(CC)CC2)c1ncc(-c2ccc3c(=O)n(CC)ccc3c2)o1 [Compound 162],6530,3.24,2.84
CCC(=O)CCCCC[C@H](NC(=O)[C@H]1CC12CCN(C)CC2)c1ncc(-c2ccc(C3CC3)nc2)[nH]1 [Compound 139],4450,5.28,2.39
CCC(=O)CCCCC[C@H](NC(=O)[C@H]1CC12CCN(C)CC2)c1[nH]c(-c2ccc(F)cc2)nc1C#N [Compound 76],26600,3.85,2.88
"CCC(=O)CCCCC[C@H](NC(=O)[C@@]1(C)CC12CCN(C(C)C)CC2)c1ncc(-c2ccc3nc(C)ccc3c2)[nH]1 (single isomer, unassigned) [Compound 151, (1S or 1R)-1-methyl-6-(1-methylethyl)-N-{(1S)-1-[5-(2-methylquinolin-6-yl)-1H-imidazol-2-yl]-7-oxononyl}-6-azaspiro[2.5]octane-1-carboxamide]",5820,5.74,3.94
"CCC(=O)CCCCC[C@H](NC(=O)C1CC12CCN(C)C(C)(C)C2)c1ncc(-c2ccc3nc(C)ccc3c2)[nH]1 (single isomer, unassigned) [Compound 133]",879,< 1.5,< 1.5
"COc1cc2nc(C)ccc2cc1-c1cnc([C@H](CCCCCC(=O)CC2CC2)NC(=O)[C@H]2CC23CCN(C)CC3)o1 [Compound 195, (1S)—N-{(1S)-8-cyclopropyl-1-[5-(7-methoxy-2-methylquinolin-6-yl)-1,3-oxazol-2-yl]-7-oxooctyl}-6-methyl-6-azaspiro[2.5]octane-1-carboxamide]",21500,0.86,1.71
CCC(=O)CCCCC[C@H](NC(=O)[C@H]1CC12CCN(CC)CC2)c1ncc(-c2ccc3nc(C4CC4)ccc3c2)o1 [Compound 114],4090,1.12,1.04
CCC(=O)CCCCC[C@H](NC(=O)[C@H]1CC[C@]2(CC1)OC(=O)c1cccnc12)c1ncc(-c2ccc3nc(C4CC4)ccc3c2)o1 [Compound 123],> 15000,34.8,7.59
"CCC(=O)CCCCC[C@H](NC(=O)C1CC12CCN(C)C(C)(C)C2)c1ncc(-c2ccc3nc(C)ccc3c2)[nH]1 (single isomer, unassigned) [Compound 131]",2280,0.48,0.57
CCC(=O)CCCCC[C@H](NC(=O)[C@H]1CC12CCN(CC1CC1)CC2)c1ncc(-c2ccc3nc(C4CC4)ccc3c2)[nH]1 [Compound 104],5300,< 1.5,< 1.5
"CCC(=O)CCCCC[C@H](NC(=O)C1CN(C)C1)c1[nH]c(-c2ccc(F)cc2)nc1Br [Compound 65, N-{(1S)-1-[4-bromo-2-(4-fluorophenyl)-1H-imidazol-5-yl]-7-oxononyl}-1-methylazetidine-3-carboxamide]",> 45000,44.9,20.6
CCC(=O)CCCCC[C@H](NC(=O)[C@H]1CC12CCN(C)CC2)c1ncc(-c2ccc3c(ccc(=O)n3C)c2)o1 [Compound 109],13400,3.52,2.98
CCC(=O)CCCCC[C@H](NC(=O)C1=NOC2(CCN(C)CC2)C1)c1ncc(-c2cc3ccc(C)nc3cc2OC)o1 [Compound 196],759,1.42,0.73
CCC(=O)CCCCC[C@H](NC(=O)[C@H]1CC12CCN(CC)CC2)c1ncc(-c2ccc3c(cnn3C3CC3)c2)[nH]1 [Compound 159],2950,0.44,0.49
CCC(=O)CCCCC[C@H](NC(=O)C1(CC(C)C)CC2(CN(C)C2)C1)c1ncc(-c2ccc3nc(C)ccc3c2)[nH]1 [Compound 157],8530,5.39,4.01
CCC(=O)CCCCC[C@H](NC(=O)[C@H]1CC12CCN(C)CC2)c1ncc(-c2cc3ccc(=O)n(C)c3cc2OC)o1 [Compound 198],426,0.87,0.65
CCC(=O)CCCCC[C@H](NC(=O)C1=NOC2(CCN(C)CC2)C1)c1ncc(-c2cc3ccc(=O)n(C)c3cc2OC)o1 [Compound 193],> 900,3.01,1.81
CCC(=O)CCCCC[C@H](NC(=O)[C@H]1CC12CCN(C)CC2)c1ncc(-c2ccc3nc(C4CC4)ccc3c2)o1 [Compound 121],4810,1.39,1.16
CCC(=O)CCCCC[C@H](NC(=O)[C@H]1CC12CCN(C)CC2)c1ncc(-c2ccc3nc(C)cc(Cl)c3c2)[nH]1 [Compound 174],951,0.55,0.43
